Source: patent publication US20250108053A1, “RIBOCICLIB PHARMACEUTICAL COMPOSITIONS” (Novartis AG, priority 2022, published 2025)
Each block holds one compound with its values, some of them ahead of it.

Assay: Preliminary studies of ribociclib succinate in oral solutions: pH, solubility, preservatives
Description: To achieve a clear solution of ribociclib succinate upon reconstitution, sufficient quantity of acid is needed to adjust the pH of the liquid into an acidic range for ribociclib succinate to completely solubilize. For use in the present invention, suitable solubilizers are in the form of an acid.

[1] = oral solutions of ribociclib succinate

SMILES: C/C=C/C=C/C(=O)[O-].[K+] [potassium sorbate]
pH required by the preservative [1]: about 3.5

SMILES: O=C([O-])c1ccccc1.[Na+] [sodium benzoate]
Observation in oral solution formulations with the preservative [1]: precipitation was observed

Solubility in basic pH as compared to acidic pH: limited solubility in basic pH
pH range in which a clear solution was achieved (ribociclib succinate in oral solutions): 3.5-4.5
SMILES: CN(C)C(=O)c1cc2cnc(Nc3ccc(N4CCNCC4)cn3)nc2n1C1CCCC1.O=C(O)CCC(=O)O [ribociclib succinate]
